# Source: patent US20260193294A1, “POLYPEPTIDE INHIBITOR, AND PREPARATION METHOD THEREFOR AND USE THEREOF” (SHANGHAI HANSOH BIOMEDICAL CO., LTD., priority 2022, published 2026)
# Positions of bridges follow the written chain, without caps; N, C: chain ends. Non-standard residues stand in square brackets, D forms with d. Residues, ends and D or L forms follow the SMILES beside them. *: point of attachment. X1 = CN(CCNC(=O)CCOCCOCC[N+](C)(C)CCNC(=O)COCCOCCNC(=O)COCCOCCNC(=O)CC[C@H](NC(=O)CCCCCCCCCCCCCCC(=O)O)C(=O)O)*; Trp(7-Me) = Cc1cccc2c(C[C@H](N)C(=O)O)c[nH]c12; 2Nal = N[C@@H](Cc1ccc2ccccc2c1)C(=O)O; AEF = NCCOc1ccc(C[C@H](N)C(=O)O)cc1; 3Pal = N[C@@H](Cc1cccnc1)C(=O)O; Pen = CC(C)(S)[C@H](N)C(=O)O; Thp = NC1(C(=O)O)CCOCC1
# Key:
# [1] = system: activation of STAT3 phosphorylation by hIL23 in DB cells; assay: Blocking the activation of STAT3 phosphorylation by hIL23 in DB cells (p-STAT3 ELISA); type: cell-based, Human; conditions: DB cells stimulated by rhIL-23 0.5 nM, half an hour; read-out: pStat3 IC50
# Experimental: To determine the inhibitory activity of the compounds of the present disclosure on the activation of STAT3 phosphorylation by hIL23 in DB cells
# The compounds produced above were added to DB (ATCC Cat #CRL-2289) cells to inhibit the signal transduction of rhIL-23 cytokine. The screening of compounds was carried out by a multi-well plate (suitable for ELISA assay). Generally, in the presence of some of the above compounds of the present disclosure, 6.25×10^6 cells/ml of DB cells were stimulated by rhIL-23 (0.5 nM, R&D SYSTEMS) in RPMI medium (Invitrogen) containing 10% of FBS, and after half an hour, lysis was carried out on ice using 50 μL of 2×lysis buffer (CST). The content of p-STAT3 in the lysate was determined by PathScan Phospho-Stat3 (Tyr705) Sandwich ELISA Kit (CST Cat #7300C), so as to calculate the activity of the compounds of the present disclosure in blocking rhIL23 signal transduction in DB cells.
# The inhibition rate was calculated as follows: […]
# By using log (inhibitor) vs. response—Variable slope (four parameters) in Graphpad, the data of ELISA experiment results were subjected to non-linear regression fitting to fit a curve and obtain the IC50 value.
# [2] = Pharmacokinetic determination in rats (IV); conditions: male, SD, rat, plasma, 1 mg/kg
# Experimental: (§11) SD rats were used as test animals to study the pharmacokinetic behavior of the compounds of the examples in the rats (plasma) after oral or IV administration.
# Preparation of intravenous drug: PBS
# (§12) The compounds of the examples were weighed and dissolved in this solution, vortexed, ultrasonicated for 5 min, and filtered through a 0.22 μm filter membrane to obtain colorless clear solutions with a concentration of 0.2 mg/mL.
# (§13) 3 SD rats/group, male were fasted overnight and then respectively administered IV at a dose of 1 mg/kg and a volume of 5 mL/kg.
# (§14) • Before administration and at 0.083 h, 0.25 h, 0.5 h, 1.0 h, 2.0 h, 4.0 h, 6.0 h, 8.0 h, and 24.0 h after administration (IV), 0.2 mL of blood was collected from the jugular vein, placed in an EDTA-2K test tube, and centrifuged at 6000 rpm for 6 min at 4° C. to separate plasma, which was stored at −20° C.; and the rats were fed 4 h after administration.
# (§15) 1) Acetonitrile (200 μL) was added to the plasma sample (50 μL) for precipitation, and the mixture was mixed and centrifuged at 4500 rpm for 15 min.
# (§16) 2) The treated supernatant solution was taken and subjected to LC/MS/MS to analyze the concentrations of the test compounds. LC/MS/MS analysis instrument: AB Sciex Triple Quad 6500+.
# (§17) • Liquid phase conditions: Shimadzu LC-30AD pump • Chromatographic column: HALO 90A PFP 2.7 μm 2.1×30 mm, mobile phase: liquid A: 5% acetonitrile aqueous solution (0.1% formic acid), and liquid B: an aqueous solution of 95% acetonitrile (0.1% formic acid) • Flow rate: 0.6 mL/min • Elution time: 0-2.0 min, the eluent was as follows:
# (§18) The main pharmacokinetic parameters were calculated using WinNonlin 8.1.
# in vivo = conditions: male, SD, rat, iv, 1 mg/kg
# Experimental: as §11
# Preparation of intravenous drug: PBS
# as §12, §13, §14, §15, §16, §17, §18
# [3] = Stability in plasma (human); type: in vitro ADME; conditions: human, plasma
# Experimental: (§1) To study the stability of the compounds of the examples in the plasmas of mice, rats, dogs and humans.
# (§2) Preparation of plasma: Animal or human whole blood was collected, then put into a test tube containing an anticoagulant, and centrifuged at 3500 rpm for 10 min, and the upper pale yellow plasma was collected; • working solution of 10 μM test compound: a stock solution was prepared with DMSO, and the working solution was prepared with 100 mM phosphate buffer; • working solution of 10 μM positive control: • procaine: 2.36 mg of procaine was weighed and diluted into a 10 mM stock solution with 1 mL of DMSO. 10 μL of the 10 mM stock solution was pipetted into 1 mL of 100 mM phosphate buffer, such that the final concentration was 100 μM; and • enalapril: 4.93 mg of enalapril was weighed and diluted into a 10 mM stock solution with 1 mL of DMSO; and 10 μL of the 10 mM stock solution was pipetted into 1 mL of 100 mM phosphate buffer, such that the final concentration was 100 μM.
# (§3) In a 96-well plate, 285 μL of plasma and 15 μL of 10 μM compound (test compound, and positive control) were successively added and incubated at 37° C.
# (§4) 40 μL was taken at 0, 15, 30, 60, 90, and 120 min (sampling points could be fine-tuned), respectively, and 160 μL of an acetonitrile stop solution containing an internal standard was added.
# (§5) After centrifugation (3500 rpm, 10 min), 50 μL of the supernatant was taken, diluted by adding 50 μL of DDH2O, and then injected for LC-MS/MS.
# (§6) • Instrument: Shimadzu LC-20 AD • Chromatographic column: Phenomenex Gemiu® C18 (50*4.6 mm, 5 μm particle size) • Mobile phase: A: acetonitrile, B: 0.1% formic acid solution • Elution gradient: […]: 5% A→95% A, 2.0-2.1 min: […] • Flow rate: 0.8 mL/min • Run time: 5.0 min • Injection volume: 5 μL
# (§7) • Instrument: API4000 liquid chromatography mass spectrometer, AB, US • Ion source: electrospray ionization source (ESI) • Drying gas: N2, temperature 500° C. • Electrospray voltage: 5500V • Detection mode: positive ion detection • Scan mode: multi reaction monitoring (MRM) mode • Scan time: 0.1 s
# (§8) All calculations were carried out using Microsoft Excel. The peak area ratio was determined by an extracted ion chromatogram.
# (§9) The residual percentage of the compound at each time point was calculated by the following equation: Residual percentage at t hours (%)=peak area ratio at t hours/peak area ratio at 0 hour×100%, in which the peak area ratio at t hr was the peak area ratio of the […] at t min; and • the slope value k was determined by linear regression on the natural logarithm of the curve of the residual percentage of the parent drug versus the incubation time.
# (§10) In vitro half-life (in vitro t1/2) was determined by the slope value: […]
# in vitro = in vitro ADME; conditions: plasma
# Experimental: as §1, §2, §3, §4, §5, §6, §7, §8, §9, §10
# [4] = system: IL23-induced rat otitis model; assay: In vivo pharmacodynamics in IL23-induced rat otitis model (ear thickening); set-up: species or system SD rats; conditions: 10 mg/kg, gavage, QD
# From the text: To evaluate the in vivo efficacy of the compounds in an IL23-induced rat otitis model.
# SD rats, 6-8 weeks old, male, purchased from Jiangsu GemPharmatech Co., Ltd.
# • a. […]
compound,measurement,setting,value
CC(=O)NCCCC[C@@H]1NC(=O)[C@H](Cc2c[nH]c3c(C)cccc23)NC(=O)[C@H]([C@@H](C)O)NC(=O)[C@H](CC(N)=O)NC(=O)[C@@H](NC(C)=O)C(C)(C)SSC(C)(C)[C@@H](C(=O)N[C@@H](Cc2ccc(OCCN)cc2)C(=O)N[C@@H](Cc2ccc3ccccc3c2)C(=O)NC2(C(=O)N[C@@H](CCC(=O)O)C(=O)N[C@@H](CC(N)=O)C(=O)N[C@@H](Cc3cccnc3)C(=O)N(C)CCNC(=O)CCOCCOCC[N+](C)(C)CCNC(=O)COCCOCCNC(=O)COCCOCCNC(=O)CC[C@H](NC(=O)CCCCCCCCCCCCCCC(=O)O)C(=O)O)CCOCC2)NC1=O [Example 1] (Ac-[Pen]NT[Trp(7-Me)]K(Ac)[Pen][AEF][2Nal][Thp]EN[3Pal]-X1; disulfide 1-6),IC50,[1],0.025 nM
same,AUC(0-inf),[2],46700 ng·h/mL
same,AUC(0-t),[2],45400 ng·h/mL
same,C0,[2],10300 ng/mL
same,MRT,[2],6.1 h
same,clearance,[2],0.35 mL/min/kg
same,half-life,in vivo,4.9 h
same,half-life at 0.5 μM,[3],64.6 h
same,"remaining at 4 h, 0.5 µM",[3],94.3%
same,half-life at 0.5 μM,in vitro; dog,148 h
same,"remaining at 4 h, 0.5 µM",in vitro; dog,99.7%
same,half-life at 0.5 μM,in vitro; mouse,32 h
same,"remaining at 4 h, 0.5 µM",in vitro; mouse,93.8%
same,half-life at 0.5 μM,in vitro; rat,75.7 h
same,"remaining at 4 h, 0.5 µM",in vitro; rat,98.7%
same,Inhibition rate on Day 4 (ear thickening),[4],51.22%
